Assays:
[1] = Kinematic viscosity, Schott-Ubbelohde viscometers; format: physicochemical
Procedure: Kinematic viscosity: Kinematic viscosity was measured using Schott-Ubbelohde Viscometers (glass capillary viscometers). The viscometers were timed using a viscometer timer available under the trade designation AVS-350 from SI Analytics, College Station, Tex., USA. The viscometer measurement stand and glass viscometer were immersed in a temperature-controlled liquid bath filled with NOVEC 7500 fluid available from 3M Company, Maplewood, Minn., USA. The temperature-controlled liquid bath (available from Lawler Manufacturing Corporation, Edison, N.J., USA), was fitted with a copper tubing coil for liquid nitrogen cooling with fine temperature control provided by the bath's electronic temperature control heater. The fluid was mechanically stirred to provide uniform […] temperature in the bath. The bath controlled the temperature within +0.1° C., measured by a built-in RTD temperature sensor. The sample liquid was added to the viscometer between the two fill lines etched on the viscometer. The viscometer timer automatically pumped the sample fluid above the upper timing mark, then released the fluid and measured the efflux times between the upper and lower timing marks. The fluid meniscus was detected by optical sensors as it passed each timing mark. The sample was drawn up and measured repeatedly; results are provided as averages of multiple determinations. The glass viscometers were calibrated using certified kinematic viscosity standard fluids available from Cannon Instrument Company, State College, Pa., USA, to obtain a calibration constant (cSt/sec) for each viscometer. Kinematic viscosity in centiStokes (cSt) was calculated as the average efflux time (sec) times the viscometer calibration constant (cSt/sec).

[2] = Specific heat capacity (Cp) by DSC; format: physicochemical
Procedure: Specific heat capacity (Cp): Cp was measured using a TA Instruments Model Q2000 DSC (Differential Scanning Calorimeter) instrument. A sapphire standard was run before and after the samples and the average of the measured sapphire heat capacity vs. the theoretical heat capacity was used to correct the measured heat capacity of the sample.

[3] = Pour point, determined visually; format: physicochemical
Procedure: One to two milliliters of the sample were placed in a vial and cooled in a bath until it solidified. The sample was then allowed to warm slowly in the bath and observed every 3-5° C.

[4] = Chemical stability in the presence of triethylamine (TEA); format: physicochemical; conditions: 50° C.
Procedure: (§1) Chemical Stability: Stability of compounds in the presence of the bases triethylamine (TEA), 1,4-diazabicyclo[2.2.2]octane (DABCO), and N,N,N,N-tetramethylethylene diamine (TMEDA) was tested as follows. To a 20 mL vial equipped with a magnetic stir bar were added the exemplary and comparative materials in the following starting amounts: Example 1-0.30 g (1.0 mmol), CE4-0.30 g (1.0 mmol) and CE5-0.30 g (1.0 mmol). FC-770 (0.40 g, 1.0 mmol) was added as an internal standard since it is known to be stable in the presence of the base materials tested herein. To this mixture was added one of: triethylamine (0.10 g, 1.0 mmol), DABCO (0.10 g, 0.89 mmol), or TMEDA (0.12 g, 1.0 mmol). The resultant mixture was stirred at 50° C. for 24 hours. GC-FID analysis was performed at specific time intervals to monitor the remaining hydrofluoroether and comparative materials present in the mixture.

[5] = Chemical stability in the presence of NMP, fluoride ion content; format: physicochemical; conditions: 50° C., 144 h, aqueous layer
Procedure: Stability of compounds in the presence of N-methylpyrrolidinone (NMP) was tested as follows. To a 20 mL glass vial equipped with a magnetic stir bar was added 0.66 g of NMP (6.7 mmol) and one of the following exemplary or comparative materials in the following starting amounts: Example 1-2.0 g (6.7 mmol); CE4-2.0 g (6.7 mmol); CE5-2.0 g (6.7 mmol), or CE6-2.40 g (6.7 mmol). This mixture was then stirred at 50° C. for 144 h. To the resultant mixture was added H2O (6.0 mL) and the aqueous layer was evaluated for fluoride ion content. The samples were analyzed using an Orion EA 940 meter with an Orion 9609BNWB Fluoride-ISE. Orion Ionplus Fluoride standards were used to calibrate the meter.

[6] = Chemical stability in the presence of DABCO; format: physicochemical; conditions: 50° C.
Procedure: as §1

[7] = Chemical stability in the presence of TMEDA; format: physicochemical; conditions: 50° C.
Procedure: as §1

rats = assay: Toxicity screening study in rats, 4-hour inhalation; format: in vivo
Procedure: To a 3-neck flask equipped with a magnetic stir bar and reflux condenser were charged 1,1,1,3,3,4,4,4-octafluoro-2-(trifluoromethyl)butan-2-olate cesium salt (300 g of a 33 wt % solution in diglyme, 237 mmol). The resultant reaction mixture was heated to 70° C. followed by the dropwise addition of iodomethane (17 mL, 273 mmol). The reaction mixture was allowed to stir overnight at the same temperature. After cooling to room temperature, H2O (400 mL) was added and the mixture was transferred to a 2 L separatory funnel. The bottom, fluorochemical layer was then separated and analyzed by GC-FID indicating a 58% yield of the title compound. Distillation afforded the desired 1,1,1,2,2,4,4,4-octafluoro-3-methoxy-3-(trifluoromethyl)butane (77° C., 740 mm/Hg, 32.1 g, 45% isolated yield) as a colorless liquid. The identity of the purified composition was confirmed by GC-MS analysis.

| Compound | Kinematic Viscosity ([1]; 0.0 ° C.) [cSt] | Kinematic Viscosity ([1]; −10.0 ° C.) [cSt] | Kinematic Viscosity ([1]; −20.0 ° C.) [cSt] | Kinematic Viscosity ([1]; −30.0 ° C.) [cSt] | Kinematic Viscosity ([1]; −40.0 ° C.) [cSt] | Specific Heat Capacity [2] [J/g · K] | pour point [3] [°C] | Mole % of Starting Material ([4]; 0 hr) [Mole %] | Mole % of Starting Material ([4]; 16 hr) [Mole %] | Mole % of Starting Material ([4]; 24 hr) [Mole %] | Fluoride ion content [5] [ppm] | Mole % of Starting Material ([6]; 0 hr) [Mole %] | Mole % of Starting Material ([6]; 16 hr) [Mole %] | Mole % of Starting Material ([6]; 24 hr) [Mole %] | Mole % of Starting Material ([7]; 0 hr) [Mole %] | Mole % of Starting Material ([7]; 16 hr) [Mole %] | Mole % of Starting Material ([7]; 24 hr) [Mole %] | 4-hour inhalation LC50 (rats) |
| --- | --- | --- | --- | --- | --- | --- | --- | --- | --- | --- | --- | --- | --- | --- | --- | --- | --- | --- |
| COC(C(F)(F)C(F)(F)F)(C(F)(F)C(F)(F)F)C(F)(F)C(F)(F)F [Example 3, 1,1,1,2,2,4,4,5,5,5-decafluoro-3-methoxy-3-(1,1,2,2,2-pentafluoroethyl)pentane] | 0.97 | 1.65 | 2.15 | 2.88 | 5.19 | 1.16 | −62 | – | – | – | – | – | – | – | – | – | – | – |
| COC(F)(F)C(F)(C(F)(F)F)C(F)(F)C(F)(F)F (centres unmarked) [CE5, 2-(difluoro(methoxy)methyl)-1,1,1,2,3,3,4,4,4-nonafluorobutane] | – | – | – | – | – | – | – | 100 | 100 | 86.7 | 657.8 | 100 | 46.7 | 43.3 | 100 | 36.7 | 36.7 | – |
| COC(C(F)(F)F)(C(F)(F)F)C(F)(F)C(F)(F)F [Example 1, 1,1,1,2,2,4,4,4-octafluoro-3-methoxy-3-(trifluoromethyl)butane] | – | – | – | – | – | – | – | 100 | 100 | 100 | 15.1 | 100 | 100 | 100 | 100 | 100 | 100 | > 1,840 ppm |
| COC(F)(C(F)(F)F)C(F)(C(F)(F)F)C(F)(F)F (centres unmarked) [CE4, 1,1,1,2,3,4,4,4-octafluoro-2-methoxy-3-(trifluoromethyl)butane] | – | – | – | – | – | – | – | 100 | 100 | 96.7 | 388.8 | 100 | 66.7 | 56.7 | 100 | 53.3 | 53.3 | – |
